Assay results from the NIST ThermoML archive (doi:10.1007/s10765-011-0995-x).
Numbers after ± are expanded uncertainties.

Columns and labels:
[1] = refractive index (Na D-line) (dimensionless); xn = mol fraction of the nth substance listed; details: 101 kPa, Liquid, Standard Abbe refractometry
[2] = xn = mol fraction of the nth substance listed; details: 101 kPa, Liquid; for speed of sound: Pulse-echo method

Cc1ccc(Cl)cc1 [4-chlorotoluene] + CCCCCCCCCCO
Details	mass density, [2] [kg/m3]	refractive index, [1]	speed of sound, [2] [m/s]	viscosity, [2] [mPa·s]
298.15 K, x1 = 0.0718	837.82 ± 0.41	1.4376 ± 0.0005	1373.1 ± 1.3	9.725 ± 0.094
298.15 K, x1 = 0.1353	848.32 ± 0.4	1.4405 ± 0.0005	1366.4 ± 1.3	8.154 ± 0.081
298.15 K, x1 = 0.1976	859.01 ± 0.38	1.4437 ± 0.0005	1359.4 ± 1.3	6.842 ± 0.071
298.15 K, x1 = 0.2703	872.09 ± 0.36	1.4477 ± 0.0005	1350.9 ± 1.3	5.561 ± 0.06
298.15 K, x1 = 0.341	885.46 ± 0.34	1.4519 ± 0.0005	1342.3 ± 1.3	4.546 ± 0.051
298.15 K, x1 = 0.4103	899.31 ± 0.32	1.4566 ± 0.0005	1333.9 ± 1.3	3.733 ± 0.042
298.15 K, x1 = 0.482	914.52 ± 0.3	1.4618 ± 0.0005	1325 ± 1.3	3.045 ± 0.035
298.15 K, x1 = 0.5531	930.57 ± 0.27	1.4676 ± 0.0005	1316.5 ± 1.3	2.495 ± 0.029
298.15 K, x1 = 0.6234	947.55 ± 0.25	1.4738 ± 0.0005	1308.6 ± 1.2	2.058 ± 0.024
298.15 K, x1 = 0.7045	968.72 ± 0.22	1.4818 ± 0.0005	1300.2 ± 1.2	1.654 ± 0.02
298.15 K, x1 = 0.7497	981.35 ± 0.2	1.4866 ± 0.0005	1296.1 ± 1.2	1.472 ± 0.018
298.15 K, x1 = 0.8196	1002.21 ± 0.18	1.4947 ± 0.0005	1291 ± 1.2	1.239 ± 0.015
298.15 K, x1 = 0.8907	1025.23 ± 0.22	1.5035 ± 0.0005	1288 ± 1.2	1.047 ± 0.013
298.15 K, x1 = 0.9556	1048.23 ± 0.25	1.5124 ± 0.0005	1287.5 ± 1.2	0.907 ± 0.012
298.15 K, x1 = 1	1065.11 ± 0.27	1.5188 ± 0.0005	1289.1 ± 1.2	0.828 ± 0.011
303.15 K, x1 = 0.0718	834.11 ± 0.42	1.4357 ± 0.0005	1357.3 ± 1.3	8.053 ± 0.081
303.15 K, x1 = 0.1353	844.43 ± 0.4	1.4387 ± 0.0005	1350.1 ± 1.3	6.766 ± 0.07
303.15 K, x1 = 0.1976	854.95 ± 0.39	1.4418 ± 0.0005	1342.7 ± 1.3	5.705 ± 0.061
303.15 K, x1 = 0.2703	867.83 ± 0.37	1.4458 ± 0.0005	1333.7 ± 1.3	4.658 ± 0.052
303.15 K, x1 = 0.341	881.03 ± 0.35	1.4501 ± 0.0005	1324.7 ± 1.3	3.825 ± 0.043
303.15 K, x1 = 0.4103	894.71 ± 0.33	1.4547 ± 0.0005	1315.9 ± 1.3	3.162 ± 0.036
303.15 K, x1 = 0.482	909.75 ± 0.3	1.46 ± 0.0005	1307 ± 1.3	2.608 ± 0.03
303.15 K, x1 = 0.5531	925.66 ± 0.28	1.4657 ± 0.0005	1298.4 ± 1.2	2.157 ± 0.025
303.15 K, x1 = 0.6234	942.5 ± 0.26	1.4719 ± 0.0005	1290.5 ± 1.2	1.798 ± 0.021
303.15 K, x1 = 0.7045	963.53 ± 0.23	1.4798 ± 0.0005	1282.3 ± 1.2	1.472 ± 0.018
303.15 K, x1 = 0.7497	976.09 ± 0.21	1.4846 ± 0.0005	1278.3 ± 1.2	1.325 ± 0.016
303.15 K, x1 = 0.8196	996.85 ± 0.18	1.4926 ± 0.0005	1273 ± 1.2	1.134 ± 0.014
303.15 K, x1 = 0.8907	1019.78 ± 0.21	1.5015 ± 0.0005	1269.5 ± 1.2	0.972 ± 0.013
303.15 K, x1 = 0.9556	1042.69 ± 0.24	1.5104 ± 0.0005	1269.1 ± 1.2	0.85 ± 0.012
303.15 K, x1 = 1	1059.51 ± 0.26	1.5166 ± 0.0005	1271 ± 1.2	0.784 ± 0.011
308.15 K, x1 = 0.0718	830.35 ± 0.42	1.4337 ± 0.0005	1338.2 ± 1.3	6.713 ± 0.07
308.15 K, x1 = 0.1353	840.48 ± 0.41	1.4367 ± 0.0005	1330.8 ± 1.3	5.652 ± 0.061
308.15 K, x1 = 0.1976	850.84 ± 0.39	1.4398 ± 0.0005	1323.1 ± 1.3	4.769 ± 0.053
308.15 K, x1 = 0.2703	863.56 ± 0.37	1.4439 ± 0.0005	1313.8 ± 1.3	3.909 ± 0.044
308.15 K, x1 = 0.341	876.62 ± 0.35	1.4481 ± 0.0005	1304.8 ± 1.3	3.23 ± 0.037
308.15 K, x1 = 0.4103	890.19 ± 0.33	1.4527 ± 0.0005	1295.9 ± 1.3	2.678 ± 0.031
308.15 K, x1 = 0.482	905.12 ± 0.31	1.458 ± 0.0005	1286.9 ± 1.3	2.224 ± 0.026
308.15 K, x1 = 0.5531	920.91 ± 0.29	1.4637 ± 0.0005	1278.3 ± 1.2	1.851 ± 0.022
308.15 K, x1 = 0.6234	937.62 ± 0.26	1.4698 ± 0.0005	1270.5 ± 1.2	1.558 ± 0.019
308.15 K, x1 = 0.7045	958.46 ± 0.23	1.4776 ± 0.0005	1262.5 ± 1.2	1.289 ± 0.016
308.15 K, x1 = 0.7497	970.92 ± 0.22	1.4824 ± 0.0005	1258.5 ± 1.2	1.166 ± 0.014
308.15 K, x1 = 0.8196	991.5 ± 0.19	1.4902 ± 0.0005	1253.9 ± 1.2	1.008 ± 0.013
308.15 K, x1 = 0.8907	1014.28 ± 0.2	1.499 ± 0.0005	1250.7 ± 1.2	0.875 ± 0.012
308.15 K, x1 = 0.9556	1037.1 ± 0.23	1.5078 ± 0.0005	1251 ± 1.2	0.781 ± 0.011
308.15 K, x1 = 1	1053.9 ± 0.25	1.5138 ± 0.0005	1253.1 ± 1.2	0.73 ± 0.011
